In US20130040813A1 (priority 2010, published 2013):
Like-named read-outs stand apart in the source and are kept apart here.

Key:
Assay type in all cases: cell-based
[1] = test system: Septoria tritici; assay: Microtest: activity against the wheat leaf blotch pathogen Septoria tritici; conditions: single compound, 7 days
[2] = test system: Pyricularia oryzae; assay: microbe, parasite or virus in culture
[3] = test system: Botrytis cinerea; assay: Microtest: activity against the grey mold pathogen Botrytis cinerea; conditions: single compound, 7 days; for inhibition of growth at 0.25 ppm / inhibition of growth at 1 ppm / inhibition of growth at 4 ppm: Botrytis cinerea, 168 h, read-out: Observed efficacy
[4] = test system: Phytophthora infestans; conditions: single compound, 7 days
[5] = test system: Alternaria solani; assay: Microtest: activity against the early blight pathogen Alternaria solani; conditions: single compound, 7 days
[6] = Zymoseptoria tritici, 168 h, read-out: Observed efficacy
[7] = Pyricularia oryzae, 168 h, read-out: Observed efficacy
[8] = Zymoseptoria tritici, 168 h, 0.063 ppm, read-out: Observed efficacy
[9] = Zymoseptoria tritici, 168 h, 0.25 ppm, read-out: Observed efficacy

Compound: Fc1ccc(Oc2ccnc3cc(Cl)cc(Cl)c23)cc1 [II-15, Quinoxyfen, reference compound]
- inhibition of growth at 1 ppm [1, 6]: 10%
- inhibition of growth at 16 ppm [2, 7]: 9%

Compound: Cn1cc(C(=O)Nc2ccc(F)cc2-c2ccc(Cl)c(Cl)c2)c(C(F)F)n1 [II-2, Bixafen, reference compound]
- Observed efficacy ([1]; 0.063 ppm): 40%

Compound: Fc1ccc([C@]2(Cn3cncn3)O[C@H]2c2ccccc2Cl)cc1 (racemic) [II-4, Epoxiconazole, reference compound]
- inhibition of growth at 0.25 ppm ([3]; 0.25 ppm): 40%

Compound: COc1cc(CCNc2ncnc3c(F)cc(F)c(F)c23)ccc1Oc1cc(C(F)(F)F)ccn1 [Compound I-19, (5,6,8-Trifluoro-quinazolin-4-yl)-{2-[4-(4-trifluoromethyl-pyridin-2-yloxy)-3-methoxy-phenyl]-ethyl}-amine]
- Observed efficacy ([4]; 1 ppm): 47%
- inhibition of growth at 0.063 ppm [1, 8]: 40%
- inhibition of growth at 1 ppm [1, 6]: 41%
- inhibition of growth at 1 ppm [3]: 12%
- inhibition of growth at 4 ppm [3]: 15%
- inhibition of growth at 0.016 ppm [2, 7]: 29%
- inhibition of growth at 0.063 ppm [2, 7]: 51%
- inhibition of growth at 0.25 ppm [2, 7]: 53%
- inhibition of growth at 4 ppm [2, 7]: 71%
- Observed efficacy ([5]; 1 ppm): 40%

Compound: Fc1ccc(F)c2c(NCCc3ccc(Oc4cc(C(F)(F)F)ncn4)cc3)ncnc12 [Compound I-3, (5,8-Difluoro-quinazolin-4-yl)-{2-[4-(6-trifluoromethyl-pyrimidin-4-yloxy)-phenyl]-ethyl}-amine]
- Observed efficacy ([4]; 1 ppm): 47%
- inhibition of growth at 0.063 ppm [1, 8]: 30%
- inhibition of growth at 0.25 ppm [1, 9]: 33%
- inhibition of growth at 1 ppm [3]: 22%
- inhibition of growth at 4 ppm [3]: 35%
- inhibition of growth at 0.016 ppm [2, 7]: 34%
- inhibition of growth at 0.063 ppm [2, 7]: 45%
- inhibition of growth at 0.25 ppm [2, 7]: 43%
- inhibition of growth at 4 ppm [2, 7]: 72%
- Observed efficacy ([5]; 0.25 ppm): 38%
- Observed efficacy ([5]; 1 ppm): 35%

Compound: N#Cc1c(Cl)c(Cl)c(Cl)c(C#N)c1Cl [II-3, Chlorothalonil, reference compound]
- inhibition of growth at 1 ppm [3]: 66%

Compound: COc1cc(CCNc2ncnc3c(F)ccc(F)c23)ccc1Oc1ncc(C(F)(F)F)cc1Cl [Compound I-17, (5,8-Difluoro-quinazolin-4-yl)-{2-[4-(3-chloro-5-trifluoromethyl-pyridin-2-yloxy)-3-methoxy-phenyl]-ethyl}-amine]
- Observed efficacy ([4]; 1 ppm): 42%
- inhibition of growth at 0.25 ppm [1, 9]: 30%
- inhibition of growth at 1 ppm [1, 6]: 33%
- inhibition of growth at 1 ppm [3]: 4%
- inhibition of growth at 4 ppm [3]: 11%
- inhibition of growth at 0.063 ppm [2, 7]: 14%
- inhibition of growth at 0.25 ppm [2, 7]: 36%
- inhibition of growth at 4 ppm [2, 7]: 69%
- Observed efficacy ([5]; 1 ppm): 26%

Compound: COc1cc(CCNc2ncnc3c(F)ccc(F)c23)ccc1Oc1cc(C(F)(F)F)ccn1 [Compound I-18, (5,8-Difluoro-quinazolin-4-yl)-{2-[4-(4-trifluoromethyl-pyridin-2-yloxy)-3-methoxy-phenyl]-ethyl}-amine]
- Observed efficacy ([4]; 1 ppm): 50%
- inhibition of growth at 0.063 ppm [1, 8]: 41%
- inhibition of growth at 0.25 ppm [1, 9]: 44%
- inhibition of growth at 1 ppm [1, 6]: 44%
- inhibition of growth at 1 ppm [3]: 11%
- inhibition of growth at 4 ppm [3]: 24%
- inhibition of growth at 0.016 ppm [2, 7]: 41%
- inhibition of growth at 0.063 ppm [2, 7]: 49%
- inhibition of growth at 0.25 ppm [2, 7]: 54%
- Observed efficacy ([5]; 0.25 ppm): 43%
- Observed efficacy ([5]; 1 ppm): 44%

Compound: CON=C(C(=O)OC)c1ccccc1CON=C(C)c1cccc(C(F)(F)F)c1 [II-17, Trifloxystrobin, reference compound]
- inhibition of growth at 0.004 ppm [1, 6]: 40%
- inhibition of growth at 0.25 ppm ([3]; 0.25 ppm): 19%
- inhibition of growth at 0.016 ppm [2, 7]: 24%
- Observed efficacy ([5]; 0.063 ppm): 48%

Compound: COC(=O)N(OC)c1ccccc1COc1ccn(-c2ccc(Cl)cc2)n1 [II-14, Pyraclostrobin, reference compound]
- Observed efficacy ([4]; 0.063 ppm): 25%
- inhibition of growth at 0.004 ppm [1, 6]: 50%
- inhibition of growth at 0.25 ppm ([3]; 0.25 ppm): 20%
- inhibition of growth at 0.004 ppm [2, 7]: 39%
- Observed efficacy ([5]; 0.016 ppm): 34%

Compound: CO/C=C(/C(=O)OC)c1ccccc1Oc1cc(Oc2ccccc2C#N)ncn1 [II-1, Azoxystrobin, reference compound]
- Observed efficacy ([1]; 0.063 ppm): 54%
- Observed efficacy ([1]; 0.25 ppm): 73%
- Observed efficacy ([3]; 0.25 ppm): 12%
- Observed efficacy ([2]; 0.004 ppm, single compound, 7 days): 12%

Compound: Fc1ccc(F)c2c(NCCc3ccc(Oc4cc(C(F)(F)F)ccn4)cc3)ncnc12 [Compound I-5, (5,8-Difluoro-quinazolin-4-yl)-{2-[4-(4-trifluoromethyl-pyridin-2-yloxy)-phenyl]-ethyl}-amine]
- Observed efficacy ([4]; 1 ppm): 49%
- inhibition of growth at 0.063 ppm [1, 8]: 37%
- inhibition of growth at 0.25 ppm [1, 9]: 40%
- inhibition of growth at 1 ppm [3]: 14%
- inhibition of growth at 4 ppm [3]: 22%
- inhibition of growth at 0.016 ppm [2, 7]: 36%
- inhibition of growth at 0.063 ppm [2, 7]: 54%
- inhibition of growth at 0.25 ppm [2, 7]: 59%
- Observed efficacy ([5]; 0.25 ppm): 37%
- Observed efficacy ([5]; 1 ppm): 38%

Compound: CC(C)CC(C)c1sccc1NC(=O)c1cn(C)nc1C(F)(F)F (stereo not shown) [II-10, Penthiopyrad, reference compound]
- inhibition of growth at 0.016 ppm ([1]; Zymoseptoria tritici, 168 h, 0.016 ppm, read-out: Observed efficacy): 30%
